The values that follow come from ChEMBL document CHEMBL5352403, “Monoamine oxidase inhibitors: A concise review with special emphasis on structure activity relationship studies” (Eur J Med Chem, 2022).

pIC50, pKi: −log10 of the molar value.

For assay [1], the target named is T1, Amine oxidase [flavin-containing] B (Homo sapiens, UniProt P27338).
T1 sequence (P27338 whole entry): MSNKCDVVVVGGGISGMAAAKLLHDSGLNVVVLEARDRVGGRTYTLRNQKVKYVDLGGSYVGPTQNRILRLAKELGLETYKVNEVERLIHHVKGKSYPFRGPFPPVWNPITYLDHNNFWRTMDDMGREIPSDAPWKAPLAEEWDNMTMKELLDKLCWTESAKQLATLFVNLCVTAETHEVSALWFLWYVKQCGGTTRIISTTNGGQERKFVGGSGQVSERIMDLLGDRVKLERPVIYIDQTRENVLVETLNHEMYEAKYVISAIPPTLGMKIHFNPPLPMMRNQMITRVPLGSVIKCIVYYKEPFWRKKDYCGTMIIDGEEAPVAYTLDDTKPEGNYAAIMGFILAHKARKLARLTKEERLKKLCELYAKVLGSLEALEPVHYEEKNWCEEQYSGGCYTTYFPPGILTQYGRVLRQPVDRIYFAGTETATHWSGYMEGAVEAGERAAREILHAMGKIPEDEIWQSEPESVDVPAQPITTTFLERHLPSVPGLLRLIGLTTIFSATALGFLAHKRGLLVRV
Put plainly: Inhibition of recombinant human MAO-B using kynuramine as substrate incubated for 20 mins by spectramax fluorescence microplate reader analysis.

In assay [2] the target is T1, Amine oxidase [flavin-containing] B. As to the kind of experiment: Inhibition of recombinant human MAO-B expressed in baculovirus infected BTI-TN-5B1-4 insect cells using p-tyramine as substrate incubated for 15 mins by Amplex Red reagent and horseradish peroxidase based fluorometric analysis.
In assay [3] the target is T2, Amine oxidase [flavin-containing] A (Homo sapiens, UniProt P21397).
T2 sequence (P21397 whole entry): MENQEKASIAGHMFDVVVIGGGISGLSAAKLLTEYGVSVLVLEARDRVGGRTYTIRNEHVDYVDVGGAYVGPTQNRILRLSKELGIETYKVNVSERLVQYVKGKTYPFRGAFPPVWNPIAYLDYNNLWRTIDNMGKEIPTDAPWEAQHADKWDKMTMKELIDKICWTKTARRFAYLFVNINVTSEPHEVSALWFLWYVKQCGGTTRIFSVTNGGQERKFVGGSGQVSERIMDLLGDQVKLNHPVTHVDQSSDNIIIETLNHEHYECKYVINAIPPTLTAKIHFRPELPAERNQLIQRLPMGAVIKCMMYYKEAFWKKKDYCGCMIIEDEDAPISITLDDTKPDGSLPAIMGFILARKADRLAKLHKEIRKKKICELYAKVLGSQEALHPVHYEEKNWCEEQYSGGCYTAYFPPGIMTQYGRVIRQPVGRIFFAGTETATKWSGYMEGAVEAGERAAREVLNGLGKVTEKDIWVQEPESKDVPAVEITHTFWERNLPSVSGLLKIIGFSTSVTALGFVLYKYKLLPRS
As to the kind of experiment: Inhibition of recombinant human MAO-A using p-tyramine as substrate incubated for 15 mins by Amplex Red reagent and horseradish peroxidase based fluorometric analysis.

The target of assay [4] is T1, Amine oxidase [flavin-containing] B. Put plainly: Inhibition of recombinant human MAO-B using p-tyramine as substrate incubated for 60 mins by Amplex Red reagent and horseradish peroxidase based fluorescence microplate reader analysis.
Assay [5] has the same target. As to the kind of experiment: Inhibition of recombinant human MAO-B expressed in baculovirus infected BTI insect cells using p-tyramine as substrate incubated for 15 mins by Amplex Red reagent and horseradish peroxidase based fluorometric analysis.
The nature of assay [6]: Inhibition of goat liver MAO-B using p-tyramine as substrate incubated for 60 mins by spectrophotometric assay. It counts as tissue-based, Capra hircus.
In assay [7] the target is T2, Amine oxidase [flavin-containing] A. As to the kind of experiment: Inhibition of recombinant human MAO-A expressed in baculovirus infected BTI-TN-5B1-4 insect cells using p-tyramine as substrate incubated for 15 mins by Amplex Red reagent and horseradish peroxidase based fluorometric analysis.
Assay [8] is filed under the species Homo sapiens. As to the kind of experiment: Selectivity index, ratio of Ki for inhibition of human MAO-A to Ki for inhibition of human MAO-B.
Assay [9] deals with T2, Amine oxidase [flavin-containing] A. As to the kind of experiment: Inhibition of recombinant human MAO-A using p-tyramine as substrate incubated for 45 mins by Amplex Red reagent and horseradish peroxidase based fluorescence microplate reader analysis.
The target in assay [10] is T1, Amine oxidase [flavin-containing] B. Put plainly: Inhibition of recombinant human MAO-B using p-tyramine as substrate incubated for 1 hr by Amplex Red reagent and horseradish peroxidase based fluorescence microplate reader analysis.
Assay [11] addresses T2, Amine oxidase [flavin-containing] A. Put plainly: Inhibition of recombinant human MAO-A using kynuramine as substrate incubated for 30 mins by fluorimetric analysis.
Assay [12] deals with T1, Amine oxidase [flavin-containing] B. As to the kind of experiment: Inhibition of recombinant human MAO-B using kynuramine as substrate incubated for 30 mins by fluorimetric analysis.
For assay [13], the species on record is Homo sapiens. Put plainly: Selectivity index, ratio of Ki for inhibition of human MAO-B to Ki for inhibition of human MAO-A.
Assay [14] addresses T1, Amine oxidase [flavin-containing] B. As to the kind of experiment: Reversible inhibition of recombinant human MAO-B assessed as inhibition constant incubated for 30 mins by dilution assay.
Assay [15] concerns the target T2, Amine oxidase [flavin-containing] A. Put plainly: Inhibition of recombinant human MAO-A assessed as inhibition constant incubated for 60 mins by Amplex Red reagent and horseradish peroxidase based fluorometric analysis.
For assay [16], the target named is T1, Amine oxidase [flavin-containing] B. Put plainly: Reversible inhibition of recombinant human MAO-B incubated for 30 mins by dilution assay.
Assay [17] shares this target. As to the kind of experiment: Inhibition of recombinant human MAO-B using p-tyramine as substrate incubated for 15 mins by Amplex Red reagent and horseradish peroxidase based fluorometric analysis.
The target of assay [18] is T3, Amine oxidase [flavin-containing] B (Rattus norvegicus, UniProt P19643).
T3 sequence (P19643 whole entry): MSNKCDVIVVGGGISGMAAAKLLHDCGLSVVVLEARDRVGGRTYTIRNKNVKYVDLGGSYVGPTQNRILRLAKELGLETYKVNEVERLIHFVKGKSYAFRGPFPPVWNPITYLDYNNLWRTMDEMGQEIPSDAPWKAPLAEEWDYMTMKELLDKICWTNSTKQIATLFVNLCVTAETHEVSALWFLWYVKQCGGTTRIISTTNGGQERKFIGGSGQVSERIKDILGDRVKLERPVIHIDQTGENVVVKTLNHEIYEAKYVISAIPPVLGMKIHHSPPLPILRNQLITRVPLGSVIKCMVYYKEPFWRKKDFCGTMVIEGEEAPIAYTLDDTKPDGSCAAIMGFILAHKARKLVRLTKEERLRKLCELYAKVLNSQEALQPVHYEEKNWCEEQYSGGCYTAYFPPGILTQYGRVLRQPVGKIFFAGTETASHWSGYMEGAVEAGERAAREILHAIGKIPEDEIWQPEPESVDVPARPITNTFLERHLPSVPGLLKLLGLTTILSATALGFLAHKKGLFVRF
Put plainly: Inhibition of rat brain mitochondria MAO-B using benzylamine as substrate incubated for 30 mins by fluorescence microplate reader analysis.

The target of assay [19] is T2, Amine oxidase [flavin-containing] A. As to the kind of experiment: Inhibition of recombinant human MAO-A using kynuramine as substrate incubated for 30 mins by spectrophotometric assay.
The target in assay [20] is T1, Amine oxidase [flavin-containing] B. Put plainly: Inhibition of recombinant human MAO-B using kynuramine as substrate assessed as inhibition constant incubated for 20 mins by spectrophotometric assay.
The target is the same in assay [21]. Put plainly: Inhibition of recombinant human MAO-B using benzylamine as substrate incubated for 15 mins by spectrophotometric assay.

One may read the pIC50 as the IC50 on a negative log10 scale, so that one unit is a factor of ten. On to `COc1ccc2oc(/C=C/c3ccc(Cl)cc3)cc(=O)c2c1`, for which the pIC50 in assay [1] was 7.77.

As for `COc1cccc(-c2cc3cc([N+](=O)[O-])ccc3o2)c1`, the pIC50 in assay [2] is 7.62.

As to `O=c1oc2ccc(Cl)cc2c(O)c1-c1ccccc1O`, the negative-log IC50 (pIC50) in assay [3] is 4.26.

In the case of `CCOc1ccccc1N1CCN(c2ccc(-c3nc4cc(C)ccc4[nH]3)cc2)CC1`, the pIC50 in assay [4] is 7.28.

Turning to `Cc1cccc(NC(=S)N2N=C(c3ccc(O)cc3)CC2c2cccs2)c1` (stereo not drawn), in assay [5], the pIC50 was 6.70.

`C/N=C/c1cn(-c2ccccc2)nc1-c1ccc(F)cc1`: the values for the pIC50 in [2] and in assay [6] were 7.62 and 6.47, respectively.

Consider `O=[N+]([O-])c1cccc2cc(-c3ccccc3)oc12`, for which, in assay [7], the pIC50 is 6.77.

Take `NC(=S)N1N=C(c2ccco2)CC1c1ccc(F)cc1` (stereo not drawn): in the assay filed under Homo sapiens [8], the Ratio Ki was determined as 0.11.

With `O=C(NNc1nc2ccccc2nc1Cc1ccccc1)c1ccc(O)cc1`, in [1], the negative-log IC50 (pIC50) was 7.77.

For the compound `CC(C)(C)c1ccc(S(=O)(=O)N2CCN(C(c3ccccc3)c3ccccc3)CC2)cc1`, the pIC50 in [9] was 6.92.

For the compound `COc1ccc(C(=O)/C=C/c2ccc(N(C)C)cc2)cc1`, the pIC50 was 6.54 in assay [10] and 7.28 in assay [4].

Take `O=C(CSc1nc2cc(Cl)ccc2s1)N(Cc1cccc([N+](=O)[O-])c1)c1ccc(F)cc1`: the figures for the pIC50 in [11] and in assay [12] were 4.77 and 5.53, respectively.

As for `O=C1/C(=C/c2c3ccccc3cc3ccccc23)Oc2ccccc21`, the Ratio Ki in the assay filed under Homo sapiens [13] stood at 0.55.

One may read the pKi as −log10 of the Ki, conventionally taken in molar units. With `O=C(/C=C/C=C/c1ccccc1)c1ccco1`, the pIC50 in assay [11] was 4.77; in assay [12], 5.53. Further, the pKi in assay [14] was 8.40.

Take `O=C(CN1CCNCC1)N1N=C(c2ccc(F)cc2)CC1c1cc(Cl)ccc1O` (stereo not drawn): the pKi in assay [15] is 6.80.

Turning to `O=C1CCc2ccc(OCc3ccccc3F)cc2O1`, the pIC50 in [16] was 8.40; in assay [17] it was 9.43.

The compound `C/C(=N\NC(=O)Nc1ncc([N+](=O)[O-])s1)c1ccc(Br)cc1` showed a negative logarithm of the IC50 (pIC50) in assay [18] of 6.67.

For `C[C@H]1OC(=O)N(c2ccccc2)C1=O`, in [15], the pKi was 6.80.

On to `CCc1ccc(/C=C/C(=O)c2ccc3c(c2)OCO3)cc1`, for which the negative-log IC50 (pIC50) was 6.67 in assay [18] and 7.54 in [19].

As to `CC1=NN(C(=O)CN2CCNCC2)C(c2cc(Br)cc(Br)c2O)C1` (stereo not drawn), the pKi in [20] is 6.55.

With `CSc1ccc(C(=O)/C=C/c2cccc3c2OCO3)cc1`, the pIC50 in assay [21] was 6.19.
